From patent publication US8138188B2, “Melanocortin type 4 receptor agonist piperidinoylpyrrolidines” (Pfizer Inc., priority 2006, dated 2012)

Key:
[1] = In vitro metabolism rate determination, rat liver microsome (RLM) assay; format: in vitro ADME; conditions: rat liver microsomes, substrate 1 μM; read-out: RLM (intrinsic clearance)
Description: (§1) In vitro Metabolism Rate Determination (Human Liver Microsome (HLM); Rat Liver Microsome (RLM) Assay)
(§2) Many drugs are metabolised by the cytochrome P450 mono-oxygenase system. This enzyme is found in high concentrations in the liver and is bound to the endoplasmic reticulum of the hepatocyte. The enzyme system can be obtained in semi-purified state by the preparation of the hepatic microsomal fractions. Determining a compound's in vitro half-life in such a system provides a useful indicator of metabolic stability.
(§3) Methodology For In Vitro Rate Determination Using Hepatic & Supermix Microsomes
(§4) The method outlined below is for a total incubation volume of 1.5 ml.
(§5) 1. The following mixture is prepared in a test tube:
(§6) 2. Defrost microsomes at room temperature and add sufficient microsomes to give a final concentration of 0.5 nmol cytochrome P450/ml of incubation e.g. for a 1.5 ml incubation, the volume of microsomes to be added is:
(§7) [formula] 3. Add sufficient MilliQ water to give a total incubation volume of 1.425 ml. 4. Remove 237.5 μl of incubation mix and place in test tube for PNA positive control. Add 2.5 μl of PNA solution, whirlimix, and put tube into a rack in the thermostatically controlled shaking water bath 5. Remove 100 μl for no substrate control and dispense in test tube. Place test tube in a rack in the thermostatically controlled shaking water bath. 6. Add substrate to the incubation. The substrate should be at an initial concentration of 1 μM. The volume of substrate required in the remaining 1.162.5 ml incubation is calculated as follows:
(§8) [formula] • N.B. The volume of organic solvent added should not exceed 0.1% of the total incubation volume. 7. Remove 100 μl of incubation mix into test tube for no cofactor control. Whirlimix and put into a rack in the thermostatically controlled shaking water bath. 8. Pre-incubate the tube containing the incubation mix, also positive control and no cofactor tubes in the thermostatically controlled shaking water bath set at 37° C. for approx 5 min. 9. Add NADP to initiate reaction (75 μl to each 1.162.5 ml incubation mix, 12.5 μl to positive control tube and 5 μl to no substrate tube) and take first time point immediately. The PNA positive control, no cofactor control and no substrate tubes are incubated for the total incubation time. 10. Remove 100 μl aliquots up to 9 different sampling points from 0 to 60 min (usually 0, 3, 5, 10, 15, 20, 30, 45 & 60 min) and terminate reaction. Longer incubation times can be used, but, after 120 min the microsomes deteriorate. The reaction may be terminated by addition of organic solvent, acid or base. At the end of the incubation process the no cofactor and no substrate controls in a similar manner i.e. terminate with the same reagent. 11. PNA Positive Control Procedure: • After the final sample has been taken, remove the positive control and add 1 ml 20% TCA to this tube. Also prepare a tube containing 250 μl of a PNP standard at 50 μM, and add 1 ml 20% TCA. Whirlimix both tubes and leave for approx 5 min to allow the protein to precipitate. • Centrifuge both tubes for approx 5 min in an instrument set at 3500 rpm. Remove 1 ml of supernatant and place into clean test tubes, discard the remainder. • Add 1 ml 10M NaOH to the supernatant, whirlimix, and leave to stand for approx min. Blank spectrophotometer with distilled water at 400 nm then measure absorbance of the PNP standard against distilled water. The microsomal 4-nitroanisole O-demethylase activity is calculated as follows: Calculation of Results
(§9) [formula] • The activity value from the incubation MUST be equal to or greater than 85% of the mean value of the batch used for the incubation to be valid. If this criteria is not met, then the incubation must be repeated. 11. Analyse samples (including no cofactor and no substrate control) by a specific assay for the substrate to determine the disappearance kinetics. Analysis Of Data […]

[2] = In vitro metabolism rate determination, human liver microsome (HLM) assay; format: in vitro ADME; conditions: human liver microsomes, substrate 1 μM; read-out: HLM (intrinsic clearance)
Description: as §1, §2, §3, §4, §5, §6, §7, §8, §9

[3] = biological target: T1, MC4 receptor (MC4R) (Homo sapiens, UniProt P32245); experiment: AGRP inhibition: competition binding vs [125I]AGRP(87-132) at CHO-CRE MC4R cell membranes; conditions: vs 0.3 nM [125I]AGRP(87-132)
T1 construct: expressed in transfected cells; host or cells: CHO-CRE MC4R cells (membranes)
Description: Agouti related protein (AGRP) is a high affinity endogenous antagonist/inverse agonist for the MC4 receptor (Lu et al., 1994, Nature 371: 799-802; Oilman et al., 1997, Science 278: 135-138). […] It has been ascertained that this C-terminal fragment of AGRP contains the MC4R binding determinants (Yang et al., 1999, Mol Endocrinol 13: 148-155), therefore, compounds can be evaluated for their ability to inhibit AGRP binding to membranes from cells expressing the MC4R using a competition binding assay versus [^125I]AGRP(87-132). To this end cells expressing the MC4R were subject to homogenisation and the membrane fragment isolated by differential centrifugation. CHO-CRE MC4R cell membranes (12 μg protein) were incubated with 0.3 nM [^125I]AGRP(87-132) and 11 half-log concentrations of competitor ligand, in duplicate, in a total volume of 100 μl buffer (25 mM HEPES, 1 mM MgCl2, 2.5 mM CaCl2, 0.5% BSA pH 7.0). Non-specific binding was determined by the inclusion of 1 μM SHU9119. The reaction was initiated by the addition of membranes and plates were incubated at room temperature for 2 hours. The reaction was terminated by rapid filtration onto GF/C filters (presoaked in 1% PEI) using a vacuum harvester followed by five 200 μl washes of ice cold wash buffer (Binding buffer containing 500 mM NaCl). The filters were soaked in 50 μl scintillation fluid and the amount of radioactivity present was determined by liquid scintillation counting. Ki values were determined by data analysis using appropriate software.

T1 sequence (P32245 whole entry): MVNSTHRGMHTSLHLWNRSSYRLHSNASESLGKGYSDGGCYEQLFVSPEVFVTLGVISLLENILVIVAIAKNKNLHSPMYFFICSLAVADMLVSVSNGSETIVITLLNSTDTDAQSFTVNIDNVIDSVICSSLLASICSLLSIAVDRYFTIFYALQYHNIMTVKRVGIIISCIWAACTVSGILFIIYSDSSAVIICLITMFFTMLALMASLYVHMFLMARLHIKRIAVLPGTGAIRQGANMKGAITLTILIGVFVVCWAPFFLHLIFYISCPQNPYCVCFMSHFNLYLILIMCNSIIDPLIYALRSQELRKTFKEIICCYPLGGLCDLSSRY

| Compound | microsomal CLint at 1 μM [1] [µL/min/mg] | microsomal CLint at 1 μM [2] [µL/min/mg] | Ki [3] [nM] |
| --- | --- | --- | --- |
| C[C@@H]1CN(C(=O)[C@@H]2CN(c3ccc(C#N)nn3)C[C@H]2c2ccc(Cl)cn2)C[C@H](C)[C@@]1(O)c1ccc(F)cc1 [Example 2, 6-[(3S,4S)-3-(5-Chloropyridin-2-yl)-4-{[(3R,4R,5S)-4-(4-fluorophenyl)-4-hydroxy-3,5-dimethylpiperidin-1-yl]carbonyl}pyrrolidin-1-yl]pyridazine-3-carbonitrile] | 31 | < 12 | 59 |
| C[C@@H]1CN(C(=O)[C@@H]2CN(c3ccc(C#N)nn3)C[C@H]2c2ccc(C#N)cn2)C[C@H](C)[C@@]1(O)c1ccc(F)cc1 [Example 46] | < 8.5 | < 7 | 134 |
| C[C@@H]1CN(C(=O)[C@@H]2CN(c3ccc(=O)n(C)n3)C[C@H]2c2ccc(Cl)cn2)C[C@H](C)[C@@]1(O)C1CCCCC1 [Example 17] | > 510 | > 440 | 20 |
| C[C@@H]1CN(C(=O)[C@@H]2CN(c3ccc(=O)n(C)n3)C[C@H]2c2ccc(F)cn2)C[C@H](C)[C@@]1(O)c1ccc(Cl)cc1 [Example 7, 6-[(3S,4S)-3-{[(3R,4R,5S)-4-(4-chlorophenyl)-4-hydroxy-3,5-dimethylpiperidin-1-yl]carbonyl}-4-(5-fluoropyridin-2-yl)pyrrolidin-1-yl]-2-methylpyridazin-3(2H)-one] | 11 | 21 | 714 |
| COc1ccc(C2CN(c3ccc(C#N)nn3)CC2C(=O)N2CC(C)C(O)(c3ccc(F)cc3)C(C)C2)cn1 (stereo not drawn) [Example 16] | < 8.5 | < 45.5 | 251 |
| COc1ccc(C2CN(c3ccc(=O)[nH]n3)CC2C(=O)N2CC(C)C(O)(c3ccc(F)cc3)C(C)C2)nc1 (stereo not drawn) [Example 42] | 25 | 25 | 888 |
| COc1ccc(N2C[C@@H](C(=O)N3C[C@@H](C)[C@](O)(c4ccc(F)cc4)[C@@H](C)C3)[C@H](c3ccc(Cl)cn3)C2)nn1 [Example 4, (3R,4R,5S)-1-{[(3S,4S)-4-(5-chloropyridin-2-yl)-1-(6-methoxypyridazin-3-yl)pyrrolidin-3-yl]carbonyl}-4-(4-fluorophenyl)-3,5-dimethylpiperidin-4-ol] | 74 | 60 | 51 |
| CC1CN(C(=O)C2CN(c3ccc(=O)n(C)n3)CC2c2ccc(F)cn2)CC(C)C1(O)c1ccccc1 (stereo not drawn) [Example 39] | 58 | 95 | 751 |
| CC1CN(C(=O)C2CN(c3cncc(F)c3)CC2c2ccc(Cl)cn2)CC(C)C1(O)C1CC1 (stereo not drawn) [Example 24] | > 510 | 355 | > 955 |
| C[C@@H]1CN(C(=O)[C@@H]2CN(c3ccc(Cl)nn3)C[C@H]2c2ccc(Cl)cn2)C[C@H](C)[C@@]1(O)c1ccccn1 [Example 31] | 292 | 188 | 526 |
| C[C@@H]1CN(C(=O)[C@@H]2CN(c3ccc(Cl)nn3)C[C@H]2c2ccc(F)cn2)C[C@H](C)[C@@]1(O)c1ccccc1 [Example 35] | 92 | 100 | 386 |
| CC1CN(C(=O)C2CN(c3ccc(C#N)nn3)CC2c2ccc(F)cn2)CC(C)C1(O)c1ccccc1 (stereo not drawn) [Example 33] | 72 | 186 | 220 |
